Data on 11 compounds can be found in patent US6514997B2, “Antipicornaviral compounds and compositions, their pharmaceutical uses, and materials for their synthesis” (Agouron Pharmaceuticals, Inc., priority 1999, dated 2003).

Structures are written as SMILES. Like-named read-outs stand apart in the source and are kept apart here.

Data set [1] concerns the target T1, Recombinant rhinovirus 3C protease, serotype 14 (Human rhinovirus 14, UniProt P03303).
T1 construct: Recombinant rhinovirus 3C proteases; made in house
The data set is described as follows: Inhibition of rhinovirus 3C protease (FRET assay, kobs/[I]), serotype 14. It counts as biochemical. The settings on record: HRV-14; for kinact/KI: pH 7.6, read-out: kobs/[I] (3C protease inhibition activity). Here is the method: Inhibition of Rhinovirus 3C Protease:
Stock solutions (50 mM, in DMSO) of various compounds were prepared; dilutions were in the same solvent. Recombinant rhinovirus 3C proteases (see Birch et al., “Purification of recombinant human rhinovirus 14 3C protease expressed in Escherichia coli,” Protein Expr. Pur. (1995), vol. 6(5), 609-618) from serotypes 14, 16, and 2 were prepared by the following standard chromatographic procedures: (1) ion exchange using Q Sepharose Fast Flow from Pharmacia; (2) affinity chromatography using Affi-Gel Blue from Biorad; and (3) sizing using Sephadex G-100 from Pharmacia. Each assay sample contained 2% DMSO, 50 mM tris pH 7.6, 1 mM EDTA, a test compound at the indicated concentration, approximately 1 μM substrate, and 50-100 nM protease. The kobs/I values were obtained from reactions initiated by addition of enzyme rather than substrate. RVP activity was measured in the fluorescence resonance energy transfer assay. The substrate was (N-terminal) DABCYL-([…]-EDANS. In the uncleaved peptide, the EDANS fluorescence was quenched by the proximal DABCYL moiety. When the peptide was cleaved, the quenching was relieved, and activity was measured as an increase in fluorescence signal. The tabulated data in the column designated kobs/[I] were measured from progress curves in enzyme start experiments.

In a further data set the test system is HRV-14. Briefly: Antirhinoviral H1-HeLa cell culture assay (XTT cell protection, EC50), HRV-14. It counts as cell-based, human rhinovirus (HRV) serotype-14 in H1-HeLa cells. As for the experimental part: (§1) Antirhinoviral H1-HeLa Cell Culture Assay:
(§2) In this cell protection assay, the ability of compounds to protect cells against HRV infection was measured by the XTT dye reduction method, which is described in Weislow et al., J. Natl. Cancer Inst. […] H1-HeLa cells were infected with HRV-14 at a multiplicity of infection (m.o.i.) of 0.13 (virus particles/cell) or mock-infected with medium only. Infected or mock-infected cells were resuspended at 8×10^5 cells per mL, and incubated with appropriate concentrations of the compounds to be tested. Two days later, XTT/PMS was added to test plates and the amount of formazan produced was quantified spectrophotometrically at 450/650 nm. […] The therapeutic index (TI) was calculated by dividing the CC50 value by the EC50 value.
(§3) All strains of human rhinovirus (HRV) for use in this assay were purchased from American Type Culture Collection (ATCC), except for HRV serotype-14 (produced from the infectious cDNA clone constructed by Dr. Robert Rueckert, Institute for Molecular Virology, University of Wisconsin, Madison, Wis.). HRV stocks were propagated and viral assays were performed in H1-HeLa cells (ATCC). Cells were grown in minimal essential medium with 10% fetal bovine serum, available from Life Technologies (Gaithersburg, Md.).
(In general: Formazan colour is commonly taken as a measure of viable cells.)

The test system of another data set is H1-HeLa cells. The data set is described as follows: Cytotoxicity (CC50) in mock-infected H1-HeLa cells, XTT dye reduction. In kind it is cell-based, human. Here is the method: as §2, §3
(§4) Coxsackievirus types A-21 (CAV-21) and B3 (CVB3) were purchased from American Type Culture Collection (ATCC, Rockville, Md.). Virus stocks were propagated and antiviral assays were performed in H1-HeLa cells (ATCC). Cells were grown in minimal essential medium with 10% fetal bovine serum (Life Technologies, Gaithersburg, Md.). The ability of the compounds of this invention to protect cells against either CAV-21 or CVB3 infection was measured by the XTT dye reduction method. This method is described in Weislow et al., J. Natl. Cancer Inst. […] H1-HeLa cells were infected with CAV-21 or CVB3 at a multiplicity of infection (m.o.i.) of 0.025 or 0.075, respectively, or mock-infected with medium only. H1-HeLa cells were plated at 4×10^4 cells per well in a 96-well plate and incubated with appropriate concentrations of the test compound. One day (CVB3) or two days (CAV-21) later, XTT/PMS was added to test plates and the amount of formazan produced was quantified spectrophotometrically at 450/650 nm. […] The therapeutic index (TI) was calculated by dividing the CC50 by the EC50.

The subject of data set [2] is strains of human rhinovirus (HRV). The data set is described as follows: Antirhinoviral H1-HeLa cell culture assay (XTT cell protection, EC50), other HRV strains. In kind it is cell-based, human rhinovirus in H1-HeLa cells. The settings on record: read-out: EC50. Here is the method:
as §1
In this cell protection assay, the ability of compounds to protect cells against HRV infection was measured by the XTT dye reduction method, which is described in Weislow et al., J. Natl. Cancer Inst. (1989), vol. 81, 577-586. H1-HeLa cells were infected with HRV-14 at a multiplicity of infection (m.o.i.) of 0.13 (virus particles/cell) or mock-infected with medium only. Infected or mock-infected cells were resuspended at 8×10^5 cells per mL, and incubated with appropriate concentrations of the compounds to be tested. Two days later, XTT/PMS was added to test plates and the amount of formazan produced was quantified spectrophotometrically at 450/650 nm. […] The therapeutic index (TI) was calculated by dividing the CC50 value by the EC50 value.
as §3

Data set [3] can be described thus: Cytotoxicity (CC50) in mock-infected H1-HeLa cells, XTT dye reduction. Particulars: human, H1-HeLa cells, mock-infected; line of HRV-14. In kind it is cell-based, human. As for the experimental part: as §2, §3, §4
Setting [4] is: Rhinovirus B, HRV14, H1-HeLa, HRV-14, read-out: EC50.

T1 sequence (P03303 1538-1719): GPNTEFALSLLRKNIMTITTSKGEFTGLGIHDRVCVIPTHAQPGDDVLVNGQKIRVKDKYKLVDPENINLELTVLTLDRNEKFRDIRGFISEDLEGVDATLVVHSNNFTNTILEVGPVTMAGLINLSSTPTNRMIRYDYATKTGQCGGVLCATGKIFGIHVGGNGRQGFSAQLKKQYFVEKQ

As to `Cc1cc(C(=O)Nc2cccn(C(Cc3ccc(F)c(F)c3)C(=O)N[C@H](/C=C/C(=O)OCC(C)(C)C)C[C@@H]3CCNC3=O)c2=O)no1` (relative stereo) [Compound 47, trans-(2′S,3″″″S,4S)-4-[3′-(3″,4″-Difluorophenyl)-2′-(3′″-{[1″″-(5′″″-methylisoxazol-3′″″-yl)methanoyl]amino}-2″″-oxo-2″″H-pyridin-1″″-yl)propanoylamino]-5-(2″″″-oxopyrrolidin-3″″″-yl)pent-2-enoic Acid 2,2-Dimethylpropyl Ester], the “kobs/[I] (3C protease inhibition activity)” value in data set [1] was 1,400,000 M^−1s^−1. Besides, the EC50 was found to be 40 nM in the data set with HRV-14 (HRV-14, read-out: EC50); 148 nM in data set [2] (HRV-1A); 133 nM in data set [2] (HRV-2); 18 nM in data set [2] (HRV-3); 121 nM in data set [2] (HRV-9); 114 nM in data set [2] (HRV-10). The EC50 in data set [2] (HRV-16) was found to be 49 nM; in data set [2] (HRV-25) it was 193 nM; in data set [2] (HRV-39), 168 nM. In addition, the CC50 with H1-HeLa cells (line of HRV-1A), in the data set with H1-HeLa cells (line of HRV-2), with H1-HeLa cells (line of HRV-3), in the data set on H1-HeLa cells (line of HRV-9), with H1-HeLa cells (line of HRV-10) and in the data set on H1-HeLa cells (line of HRV-14) was more than 10000 nM in each case. For the same compound, the CC50 with H1-HeLa cells (line of HRV-16), in the data set on H1-HeLa cells (line of HRV-25) and with H1-HeLa cells (line of HRV-39) was more than 10000 nM each time.
In the case of `CCOC(=O)/C=C/[C@H](C[C@@H]1CCNC1=O)NC(=O)[C@H](Cc1ccccc1)n1ccc2cc[nH]c2c1=O` [Compound 3], the kinact/KI in data set [1] turned out to be 2900 M⁻¹ s⁻¹. The compound also gave an EC50 with HRV-14 (Rhinovirus B, HRV14, H1-HeLa) of 1270 nM. The CC50 at 2 days in data set [3] was more than 10000 nM.
As for `CCOC(=O)/C=C/[C@H](CCC(N)=O)NC(=O)[C@H](Cc1ccc(F)cc1)n1cccc(NC(=O)OCc2ccccc2)c1=O` [Compound 7, trans-(2′S,4S)-4-[2′-(3″-Benzyloxycarbonylamino-2″-oxo-2″H-pyridin-1″-yl)-3′-(4′″-fluorophenyl)propionylamino]-6-carbamoylhex-2-enoic Acid Ethyl Ester], the kinact/KI in data set [1] amounted to 81000 M⁻¹ s⁻¹. In addition, the EC50 in the data set on HRV-14 (setting [4]) was 14 nM. In data set [3], this compound returned a CC50 at 2 days of more than 10000 nM.
`CCOC(=O)/C=C/[C@H](CCC(N)=O)NC(=O)[C@H](Cc1ccccc1)n1cccc(NC(C)=O)c1=O` [Compound 8, trans-(2′S,4S)-4-[2′-(3″-Acetylamino-2″-oxo-2″H-pyridin-1″-yl)-3′-phenypropionylamino]-6-carbamoylhex-2-enoic Acid Ethyl Ester]: the kinact/KI in data set [1] amounted to 7660 M⁻¹ s⁻¹. Also, the EC50 with HRV-14 (setting [4]) turned out to be 888 nM. Besides, in data set [3], the CC50 at 2 days was more than 10000 nM.
Turning to `CCOC(=O)/C=C/[C@H](CCC(N)=O)NC(=O)[C@H](Cc1ccccc1)n1cccc(NC(=O)C(C)(C)C)c1=O` [Compound 9, trans-(2′S,4S)-6-Carbamoyl-4-{2′-[3″-(2′″,2′″-dimethylpropionylamino)-2″-oxo-2″H-pyridin-1″-yl]-3′-phenylpropionylamino}hex-2-enoic Acid Ethyl Ester], the kinact/KI in data set [1] was 5040 M⁻¹ s⁻¹. Also, the EC50 in the data set on HRV-14 (setting [4]) came to 518 nM. In addition, the CC50 at 2 days in data set [3] was more than 10000 nM.
For the compound `CCOC(=O)/C=C/[C@H](CCC(N)=O)NC(=O)[C@H](Cc1ccc(F)c(F)c1)n1cccc(NC(=O)OCc2ccccc2)c1=O` [Compound 11, trans-(2′S,4S)-4-[2′-(3″-Benzyloxycarbonylamino-2″-oxo-2″H-pyridin-1″-yl)-3′-(3′″,4′″-difluorophenyl)propionylamino]-6-carbamoylhex-2-enoic Acid Ethyl Ester], the kinact/KI in data set [1] is 193000 M⁻¹ s⁻¹. Moreover, in the data set on HRV-14 (setting [4]), the EC50 is less than 3.2 nM. In data set [3], this compound gave a CC50 at 2 days of more than 10000 nM.
As to `CCOC(=O)/C=C/[C@H](CCC(N)=O)NC(=O)[C@H](Cc1ccccc1)n1ccc(C)c(NC(=O)OCc2ccccc2)c1=O` [Compound 12, trans-(2′S,4S)-4-[2′-(3″-Benzyloxycarbonylamino-4″-methyl-2″-oxo-2″H-pyridin-1″-yl)-3′-phenylpropionylamino]-6-carbamoylhex-2-enoic Acid Ethyl Ester], in data set [1], the kinact/KI came to 25800 M⁻¹ s⁻¹. The EC50 in the data set on HRV-14 (setting [4]) amounted to 75 nM. The CC50 at 2 days in data set [3] was more than 10000 nM.
Regarding `CCOC(=O)/C=C/[C@H](CCC(N)=O)NC(=O)[C@H](CC1CCCCC1)n1cccc(NC(=O)OCc2ccccc2)c1=O` [Compound 15, trans-(2′S,4S)-4-[2′-(3″-Benzyloxycarbonylamino-2″-oxo-2″H-pyridin-1″-yl)-3′-cyclohexylpropionylamino]-6-carbamoyl-hex-2-enoic Acid Ethyl Ester], in data set [1], the kinact/KI stood at 6500 M⁻¹ s⁻¹. Besides, in the data set on HRV-14 (setting [4]), the EC50 was determined as 178 nM. This compound also displayed a CC50 at 2 days in data set [3] of more than 10000 nM.
With `O=C1OCC/C1=C\[C@H](C[C@@H]1CCNC1=O)NC(=O)[C@H](Cc1ccc(F)cc1)n1cccc(NC(=O)C2CCCC2)c1=O` [Compound 16, trans-(2′″S,2′″S,3′″″S)-Cyclopentanecarboxylic acid(1-{2′-(4″-fluorophenyl)-1′-[2′-(2″″-oxo-dihydrofuran-3″″-ylidene)-1-(2′″″-oxopyrrolidin-3′″″-ylmethyl)ethylcarbamoyl]ethyl}-2-oxo-1,2-dihydropyridin-3-yl)amide], in data set [1], the kinact/KI came to 74000 M⁻¹ s⁻¹. Also, the half-maximal effective concentration (EC50) in the data set with HRV-14 (setting [4]) stood at 325 nM. The CC50 at 2 days in data set [3] is more than 10000 nM.
On the same counts, the results for `CCOC(=O)/C=C/[C@H](CCC(N)=O)NC(=O)Cn1cccc(NC(=O)OCc2ccccc2)c1=O` [Compound 17, trans-(4S)-4-[2′-(3″-Benzyloxycarbonylamino-2″-oxo-2″H-pyridin-1″-yl)acetylamino]-6-carbamoylhex-2-enoic Acid Ethyl Ester] are 348 M⁻¹ s⁻¹, more than 10000 nM and more than 10000 nM.
Turning to `CCOC(=O)/C=C/[C@H](CCC(N)=O)NC(=O)[C@H](Cc1ccccc1)n1ccc(C)c(NC(=O)c2cc(C)on2)c1=O` [Compound 18, trans-(2′S,4S)-6-Carbamoyl-4-(2′-{4″-methyl-3″-[(5′″-methylisoxazole-3′″-carbonyl)amino]-2″-oxo-2″H-pyridin-1″-yl}-3′-phenylpropionylamino)hex-2-enoic Acid Ethyl Ester], the kinact/KI in data set [1] worked out at 116000 M⁻¹ s⁻¹. In the data set on HRV-14 (setting [4]), the EC50 stood at 125 nM. In data set [3], this compound gave a CC50 at 2 days of more than 10000 nM.

As a reminder, the EC50 is the concentration that produces a half-maximal response. The term CC50 denotes the concentration giving 50% cytotoxicity. Lower therefore signals harm at low concentration.
